From patent US8871756B2 (Hoffmann-La Roche Inc., priority 2011, dated 2014)
Where a name gives a salt, the structure may show the parent alone.

system: RSV Long strain; assay: Viral cytopathic effect (CPE) assay, anti-RSV activity; type: cell-based, Respiratory Syncytial Virus; details: human respiratory syncytial virus, 144 h, RSV Long strain (ATCC); cell viability after 6 days, Cell Counting kit-8
Procedure, shortened: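 EC50 was derived from CCK-8 viability at 450/630 nm measured 6 days post-infection. Infection used enough RSV Long strain for approximately 80–90% cytopathic effect, in the presence of half-log serially diluted compound. Cells were plated the day before at 6×10^3 per well in DMEM/10% FBS.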

Structure (SMILES)	EC50 [µM]
CCc1ccc2nc(N3CCS(=O)(=O)c4ccccc4C3)cc(NCCN)c2c1 [Example 9-10, N-[2-(1,1-Dioxido-2,3-dihydro-1,4-benzothiazepin-4(5H)-yl)-6-ethylquinolin-4-yl]ethane-1,2-diamine]	0.037
Cc1ccc2nc(N3CCS(=O)(=O)c4ccccc4C3)cc(CC[C@@H]3COC(N)=N3)c2c1 [Example 94, (4R)-4-{2-[2-(1,1-Dioxido-2,3-dihydro-1,4-benzothiazepin-4(5H)-yl)-6-methylquinolin-4-yl]ethyl}-4,5-dihydro-1,3-oxazol-2-amine]	6.53
CNC(=O)CNc1cc(N2CCS(=O)(=O)c3ccccc3C2)nc2ccc(C)cc12 [Example 36-6, N^˜2^˜-[2-(1,1-Dioxido-2,3-dihydro-1,4-benzothiazepin-4(5H)-yl)-6-methylquinolin-4-yl]-N-methylglycinamide]	0.264
Cc1ccc2nc(N3CCS(=O)(=O)c4ccccc4C3)cc(NC[C@@H](C)N)c2c1 [Example 5-9, (2R)—N˜1˜-[2-(1,1-Dioxido-2,3-dihydro-1,4-benzothiazepin-4(5H)-yl)-6-methylquinolin-4-yl]propane-1,2-diamine]	0.018
Cc1ccc2nc(N3CCC(F)(F)c4ccccc4C3)nc(NCC3(N)CS(=O)(=O)C3)c2c1 [Example 116-2, N-[(3-Amino-1,1-dioxidothietan-3-yl)methyl]-2-(5,5-difluoro-1,3,4,5-tetrahydro-2H-2-benzazepin-2-yl)-6-methylquinazolin-4-amine]	0.309
Cc1ccc2nc(N3CCS(=O)(=O)c4ccccc4C3)cc(N(C)CCN)c2c1 [Example 21-2, N-[2-(1,1-Dioxido-2,3-dihydro-1,4-benzothiazepin-4(5H)-yl)-6-methylquinolin-4-yl]-N-methylethane-1,2-diamine]	0.161
Cc1ccc2nc(N3CCS(=O)(=O)c4ccccc4C3)cc(N[C@@H]3CNC[C@H]3O)c2c1 (relative stereo) [Example 28-3, trans-4-{[2-(1,1-Dioxido-2,3-dihydro-1,4-benzothiazepin-4(5H)-yl)-6-methylquinolin-4-yl]amino}pyrrolidin-3-ol]	0.001
Cc1cc2c(NCCO)cc(N3CCS(=O)(=O)c4ccccc4C3)nc2cc1F [Example 9-23, 2-{[2-(1,1-Dioxido-2,3-dihydro-1,4-benzothiazepin-4(5H)-yl)-7-fluoro-6-methylquinolin-4-yl]amino}ethanol]	3.02
CNc1cc(N2CCS(=O)(=O)c3ccccc3C2)nc2ccc(C)cc12 [Example 3-33, 2-(1,1-Dioxido-2,3-dihydro-1,4-benzothiazepin-4(5H)-yl)-N,6-dimethylquinolin-4-amine trifluoroacetate]	0.426
Cc1ccc2nc(N3CCC(F)(F)c4ccccc4C3)cc(N(CCO)CCO)c2c1 [Example 110-11, 2,2′-{[2-(5,5-Difluoro-1,3,4,5-tetrahydro-2H-2-benzazepin-2-yl)-6-methylquinolin-4-yl]imino}diethanol]	6.75
Cc1ccc2nc(N3CCS(=O)(=O)c4ccccc4C3)cc(NCC(O)CC(=O)O)c2c1 (stereo not shown) [Example 11-3, 4-{[2-(1,1-Dioxido-2,3-dihydro-1,4-benzothiazepin-4(5H)-yl)-6-methylquinolin-4-yl]amino}-3-hydroxybutanoic acid]	0.922
Cc1ccc2nc(N3CCS(=O)(=O)c4ccccc4C3)cc(NC3CNC3)c2c1 [Example 26-1, N-(Azetidin-3-yl)-2-(1,1-dioxido-2,3-dihydro-1,4-benzothiazepin-4(5H)-yl)-6-methylquinolin-4-amine]	0.005
NC1(CNc2cc(N3CCS(=O)(=O)c4ccccc4C3)nc3ccc(CO)cc23)COC1 [Example 3-23, [4-{[(3-Aminooxetan-3-yl)methyl]amino}-2-(1,1-dioxido-2,3-dihydro-1,4-benzothiazepin-4(5H)-yl)quinolin-6-yl]methanol]	0.002
Cc1ccc2nc(N3CCC(F)(F)c4ccccc4C3)cc(NCCN(C)C)c2c1 [Example 111-8, N′-[2-(5,5-Difluoro-1,3,4,5-tetrahydro-2H-2-benzazepin-2-yl)-6-methylquinolin-4-yl]-N,N-dimethylethane-1,2-diamine]	0.283
Cc1ccc2nc(N3CCS(=O)(=O)c4ccccc4C3)cc(N[C@H]3CNC[C@H]3O)c2c1 (relative stereo) [Example 28-4, cis-4-{[2-(1,1-Dioxido-2,3-dihydro-1,4-benzothiazepin-4(5H)-yl)-6-methylquinolin-4-yl]amino}pyrrolidin-3-ol]	0.001
O=S1(=O)CCN(c2cc(N[C@@H]3CNC[C@H]3O)c3ccccc3n2)Cc2ccccc21 (relative stereo) [Example 28-2, trans-4-{[2-(1,1-Dioxido-2,3-dihydro-1,4-benzothiazepin-4(5H)-yl)quinolin-4-yl]amino}pyrrolidin-3-ol]	0.007
Cc1ccc2nc(N3CCC(F)(F)c4ccccc4C3)cc(NCCN3CCNCC3)c2c1 [Example 110-7, 2-(5,5-Difluoro-1,3,4,5-tetrahydro-2H-2-benzazepin-2-yl)-6-methyl-N-[2-(piperazin-1-yl)ethyl]quinolin-4-amine]	1.18

Structure (SMILES)	EC50 [µM]
NCCNc1cc(N2CCCc3ccccc3C2)nc2ccc(C(F)(F)F)cc12 [Example 118-19, N-[2-(1,3,4,5-Tetrahydro-2H-2-benzazepin-2-yl)-6-(trifluoromethyl)quinolin-4-yl]ethane-1,2-diamine]	1.24
COc1ccc2c(c1)S(=O)(=O)CCN(c1cc(NCC3(N)COC3)c3ccccc3n1)C2 [Example 2-9, N-[(3-Aminooxetan-3-yl)methyl]-2-(8-methoxy-1,1-dioxido-2,3-dihydro-1,4-benzothiazepin-4(5H)-yl)quinolin-4-amine]	0.007
Cc1ccc2nc(N3CCS(=O)(=O)c4ccccc4C3)cc(NC(=O)C3CCCCN3)c2c1 (stereo not shown) [Example 47-5, N-[2-(1,1-Dioxido-2,3-dihydro-1,4-benzothiazepin-4(5H)-yl)-6-methylquinolin-4-yl]piperidine-2-carboxamide]	0.835
Clc1ccc2nc(N3CCCc4ccccc4C3)ccc2c1 [Example 130-1, 2-(6-Chloroquinolin-2-yl)-2,3,4,5-tetrahydro-1H-2-benzazepine]	6.84
Cc1ccc2nc(N3CCS(=O)(=O)c4ccccc4C3)cc(NC3(CN)COC3)c2c1 [Example 71, N-[3-(Aminomethyl)oxetan-3-yl]-2-(1,1-dioxido-2,3-dihydro-1,4-benzothiazepin-4(5H)-yl)-6-methylquinolin-4-amine]	0.005
Cc1ccc2c(c1)S(=O)(=O)CCN(c1cc(NCC3(N)COC3)c3ccccc3n1)C2 [Example 2-4, N-[(3-Aminooxetan-3-yl)methyl]-2-(8-methyl-1,1-dioxido-2,3-dihydro-1,4-benzothiazepin-4(5H)-yl)-quinolin-4-amine]	0.081
NC1(CNc2nc(N3CCSc4ccccc4C3)nc3ccc(Cl)cc23)COC1 [Example 57-4, N-[(3-Aminooxetan-3-yl)methyl]-6-chloro-2-(2,3-dihydro-1,4-benzothiazepin-4(5H)-yl)quinazolin-4-amine]	0.239
COc1ccc2c(c1)CN(c1cc(NCC3(CN)COC3)c3cc(C)ccc3n1)CCS2(=O)=O [Example 3-5, N-{[3-(Aminomethyl)oxetan-3-yl]methyl}-2-(7-methoxy-1,1-dioxido-2,3-dihydro-1,4-benzothiazepin-4(5H)-yl)-6-methylquinolin-4-amine]	0.002
CC(=O)Nc1nc(N2CCS(=O)(=O)c3ccccc3C2)nc2ccc(C)cc12 [Example 63-4, N-[2-(1,1-Dioxido-2,3-dihydro-1,4-benzothiazepin-4(5H)-yl)-6-methylquinazolin-4-yl]acetamide]	0.797
O=S1(=O)CCN(c2cc(NCCO)c3cnccc3n2)Cc2ccccc21 [Example 12-2, 2-{[2-(1,1-Dioxido-2,3-dihydro-1,4-benzothiazepin-4(5H)-yl)-1,6-naphthyridin-4-yl]amino}ethanol]	0.315
NCCNS(=O)(=O)c1cc(N2CCCc3ccccc3C2)nc2ccccc12 [Example 132, N-(2-Aminoethyl)-2-(1,3,4,5-tetrahydro-2H-2-benzazepin-2-yl)quinoline-4-sulfonamide trifluoroacetate]	7.81
Cc1ccc2nc(N3CCS(=O)(=O)c4ccccc4C3)nc(NC3CNC3)c2c1 [Example 93-2, N-(Azetidin-3-yl)-6-methyl-2-(1,1-dioxido-2,3-dihydro-1,4-benzothiazepin-4(5H)-yl)quinazolin-4-amine]	0.009
Cc1ccc2nc(N3CCCc4cc(F)ccc4C3)cc(NCCN)c2c1 [Example 118-13, N-[2-(7-Fluoro-1,3,4,5-tetrahydro-2H-2-benzazepin-2-yl)-6-methylquinolin-4-yl]ethane-1,2-diamine]	0.463
NCCNc1cc(N2CCS(=O)(=O)c3ccccc3C2)nc2ccc(F)cc12 [Example 9-9, N-[2-(1,1-Dioxido-2,3-dihydro-1,4-benzothiazepin-4(5H)-yl)-6-fluoroquinolin-4-yl]ethane-1,2-diamine]	0.157
Cc1ccc2nc(N3CCS(=O)(=O)c4ccccc4C3C)cc(NCC(O)CO)c2c1 (stereo not shown) [Example 32-5, 3-{[6-Methyl-2-(5-methyl-1,1-dioxido-2,3-dihydro-1,4-benzothiazepin-4(5H)-yl)quinolin-4-yl]amino}propane-1,2-diol]	2.58
Cc1ccc2nc(N3CCC(F)(F)c4ccccc4C3)cc(NCCO)c2c1 [Example 111-5, 2-{[2-(5,5-Difluoro-1,3,4,5-tetrahydro-2H-2-benzazepin-2-yl)-6-methylquinolin-4-yl]amino}ethanol]	1.64
Cc1ccc2nc(N3CCS(=O)(=O)c4ccc(N5CCOCC5)cc4C3)cc(NCC3(N)COC3)c2c1 [Example 33-1, N-[(3-Aminooxetan-3-yl)methyl]-2-(7-morpholin-4-yl-1,1-dioxido-2,3-dihydro-1,4-benzothiazepin-4(5H)-yl)-6-methylquinolin-4-amine]	0.044
